Assay results as given in patent US20230037862A1, “SYNTHETIC AGONISTS OF TLR4 RECEPTOR” (UNIVERSITÀ DEGLO STUDI DI MILANO - BICOCCA, priority 2017, published 2023).

Experiments:
[1] = biological target: T1, purified human MD-2 receptor (Homo sapiens, UniProt Q9Y6Y9); assay: Biotinylated LPS displacement from MD-2 hydrophobic pocket (ELISA); type: binding
T1 sequence (Q9Y6Y9 19-160): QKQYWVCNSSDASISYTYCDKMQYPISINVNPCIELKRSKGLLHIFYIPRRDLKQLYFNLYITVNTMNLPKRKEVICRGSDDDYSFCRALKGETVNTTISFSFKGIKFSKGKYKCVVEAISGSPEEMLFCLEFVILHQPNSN
Procedure: The ability to displace LPS from MD-2 hydrophobic pocket was assessed by using an ELISA assay. Molecules FP11 and FP111 were added at increasing concentrations to MD-2 which had previously been incubated with biotinylated LPS.
The ability of the compounds to displace LPS from MD-2 hydrophobic pocket was determined by ELISA.
A microtiter plate was coated overnight at 4° C. with 100 μL/well of 5 μg/mL chicken polyclonal anti-MD-2 antibodies, diluted in 50 mM Na2CO3 buffer, pH 9.6, and blocked with 1% BSA in PBS. After washing, 1 μM MD-2 with biotin-labeled LPS was added and incubated for 2 h. After washing, the compounds were added at different concentrations and incubated for 1.5 h.
After washing, 0.5 μg/mL HRP-conjugated streptavidin (Sigma) in PBS was added, followed by detection at 420 nm after the addition of 100 μL of ABTS (Sigma). Chicken anti-MD-2 polyclonal antibodies were prepared against recombinant MD-2 by GenTel (Madison, Wis., USA),

[2] = system: HEK-Blue™ Null2 cells; assay: HEK-Blue Null2 counter-assay (SEAP reporter, no TLR4/MD-2/CD14); type: cell-based; settings: 16-18 hours
Procedure: HEK-Blue™ hTLR4 (FIG. 1A) and HEK-Blue™ Null2 (FIG. 1B) cells were treated with the indicated concentrations of compounds FP11, FP111, and with LPS (100 ng/mL) and incubated for 16-18 hours. Results were normalized to stimulation with LPS alone, and are expressed as mean of percentage ±ES. of at least three independent experiments.
In order to be certain that the agonist effect of compound FP11 be due to the interaction with the TLR4 receptor, the compounds were tested on the HEK-Blue™ Null2 cell line. Said line expresses the same reporter gene of HEK-Blue™ hTLR4 cells (SEAP), but has none of the receptors involved in endotoxin recognition (TLR4, MD-2, CD14).

[3] = biological target: T1, purified human MD-2 receptor; assay: Anti-MD-2 antibody (9B4) competition, antibody-sandwich ELISA; type: binding
Procedure: The direct binding of molecules FP11 and FP111 to MD-2 was analyzed by using a monoclonal antibody binding MD-2, but not LPS-bound MD-2 (Viriyakosol, S., et al., Characterization of monoclonal antibodies to human soluble MD-2 protein. Hybridoma (Larchmt), 2006. 25(6): p. 349-57).
Anti-MD-2 monoclonal antibody (9B4) specifically binds an epitope near the MD-2 hydrophobic pocket, which is available for 9B4 antibody binding only when the MD-2 hydrophobic pocket is empty. Compound FP11 is accountable for a decrease of 9B4 antibody binding to MD-2 equal to 95% at a concentration of 20 μM (FIG. 3E).
The method of antibody-sandwich ELISA for the detection of the binding of compounds to MD-2 was modified from a previous study.
A microtiter plate was coated overnight at 4° C. with 100 μL/well of 5 μg/mL of chicken polyclonal anti-MD-2 antibodies, diluted in 50 mM Na2CO3 buffer, pH 9.6, and blocked with 1% BSA in PBS. After washing, 1 μM MD-2 with tested compounds was added and incubated for 2 h.
Mouse anti-MD-2 mAb (0.1 μg/mL 9B4) and goat antimouse IgG conjugated with HRP (0.1 μg/mL) in PBS were added, followed by detection at 420 nm after the addition of 100 μL of ABTS (Sigma).
Chicken anti-MD-2 polyclonal antibodies were prepared against recombinant MD-2 by GenTel (Madison, Wis., USA), monoclonal mouse anti-MD-9B4 antibodies were from eBioscience (San Diego, Calif., USA), and secondary goat antimouse IgG conjugated with horseradish peroxidase was from Santa Cruz Biotechnology (Santa Cruz, Calif., USA).

displacement of biotinylated LPS from MD-2 ([1]; 160 μM): 55%
decrease of 9B4 antibody binding to MD-2 ([3]; 20 μM): 95%
SMILES: CCCCCCCCCCCCCC(=O)NC1C(OC(=O)CCCCCCCCCCCCC)[C@H](OC(=O)CCCCCCCCCCCCC)C(CO)O[C@H]1OP(=O)(O)O (stereo partly drawn) [FP11, 1-O-Phosphoryl-2-deoxy-4-O-tetradecanoyl 3-O-tetradecanoyl-2-tetradecanoylamino-α-D-glucopiranoside]
ability to displace biotinylated LPS from MD-2 hydrophobic pocket ([1]; increasing concentrations, highest 160 μM): displaces biotinylated LPS from MD-2 hydrophobic pocket in a dose-dependent manner
activation of transcription factors NF-κB and AP-1 in cells without TLR4, MD-2, CD14 [2]: unable to activate transcription factors NF-κB and AP-1
prevention of monoclonal antibody 9B4 binding to MD-2 ([3]; up to 20 μM): prevents the binding of monoclonal antibody to MD-2 in a dose-dependent manner
